Source: PubChem BioAssay AID1845200 (Molecular Pharmacology Branch, DTP, NCI, 2023)

Test system: ASPS-1 complex tumor spheroids, viability
Assay: Anticancer human tumor ASPS-1 cell line growth inhibition;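 note: spheroids exposed to agents for 7 days after 3 days of growth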;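 for viability, T/C: 100% = DMSO vehicle treated spheroids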
Details: for IC50: curve of first compound; for viability, T/C: stronger effect = lower value
In short: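 Single agents and combinations were tested on spheroids built from tumor cells plus HUVEC and hMSC, at half-log dilutions starting at or near clinical Cmax, else 10 microM; final DMSO 0.25% (v/v).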

[1] = second compound 30 pM, first compound 0.0316 µM
[2] = second compound 30 pM, first compound 0.1 µM
[3] = second compound 30 pM, first compound 0.316 µM
[4] = second compound 30 pM, first compound 1 µM
[5] = second compound 30 pM, first compound 3.16 µM
[6] = second compound 30 pM, first compound 10 µM
[7] = second compound 94.9 pM, first compound 0.0316 µM
[8] = second compound 94.9 pM, first compound 0.1 µM
[9] = second compound 94.9 pM, first compound 0.316 µM
[10] = second compound 94.9 pM, first compound 1 µM
[11] = second compound 94.9 pM, first compound 3.16 µM
[12] = second compound 94.9 pM, first compound 10 µM
[13] = second compound 0.0003 µM, first compound 0.0316 µM
[14] = second compound 0.0003 µM, first compound 0.1 µM
[15] = second compound 0.0003 µM, first compound 0.316 µM
[16] = second compound 0.0003 µM, first compound 1 µM
[17] = second compound 0.0003 µM, first compound 3.16 µM
[18] = second compound 0.0003 µM, first compound 10 µM
[19] = second compound 0.000949 µM, first compound 0.0316 µM
[20] = second compound 0.000949 µM, first compound 0.1 µM
[21] = second compound 0.000949 µM, first compound 0.316 µM
[22] = second compound 0.000949 µM, first compound 1 µM
[23] = second compound 0.000949 µM, first compound 3.16 µM
[24] = second compound 0.000949 µM, first compound 10 µM
[25] = second compound 0.003 µM, first compound 0.0316 µM
[26] = second compound 0.003 µM, first compound 0.1 µM
[27] = second compound 0.003 µM, first compound 0.316 µM
[28] = second compound 0.003 µM, first compound 1 µM
[29] = second compound 0.003 µM, first compound 3.16 µM
[30] = second compound 0.003 µM, first compound 10 µM

| SMILES | IC50 (second compound 30 pM) [nM] | IC50 (second compound 94.9 pM) [nM] | IC50 (second compound 0.0003 µM) [nM] | IC50 (second compound 0.000949 µM) [nM] | IC50 (second compound 0.003 µM) [nM] | viability, T/C [1] [%] | viability, T/C [2] [%] | viability, T/C [3] [%] | viability, T/C [4] [%] | viability, T/C [5] [%] | viability, T/C [6] [%] | viability, T/C [7] [%] | viability, T/C [8] [%] | viability, T/C [9] [%] | viability, T/C [10] [%] | viability, T/C [11] [%] | viability, T/C [12] [%] | viability, T/C [13] [%] | viability, T/C [14] [%] | viability, T/C [15] [%] | further results |
| --- | --- | --- | --- | --- | --- | --- | --- | --- | --- | --- | --- | --- | --- | --- | --- | --- | --- | --- | --- | --- | --- |
| CC(C)n1c(=O)n(C)c2cnc3cc(F)c(-c4ccc(OCCCN5CCCCC5)nc4)cc3c21 + COc1cc2c(cc1O)CCNC21CSC2c3c(OC(C)=O)c(C)c4c(c3C(COC1=O)N1C(O)C3Cc5cc(C)c(OC)c(O)c5C(C21)N3C)OCO4 | > 10000 | > 10000 | 868 | < 31.6 | < 31.6 | 105 | 99.5 | 98.2 | 92.5 | 83.7 | 50 | 96.1 | 84 | 78 | 72.7 | 64.4 | 48.7 | 68.7 | 62.7 | 54.7 | viability, T/C [16]: 50.4%; viability, T/C [17]: 41.6%; viability, T/C [18]: 31.1%; viability, T/C [19]: 48.7%; viability, T/C [20]: 45.6%; viability, T/C [21]: 35.3%; viability, T/C [22]: 25.1%; viability, T/C [23]: 19.9%; viability, T/C [24]: 18.1%; viability, T/C [25]: 15%; viability, T/C [26]: 5.65%; viability, T/C [27]: 1.44%; viability, T/C [28]: 0.39%; viability, T/C [29]: 0.32%; viability, T/C [30]: 0.46% |
| COc1ccc([C@@H](O)c2cc(-c3ncnc4cc(N5CCOCC5)ccc34)c(F)cc2Cl)nn1 + COc1cc2c(cc1O)CCNC21CSC2c3c(OC(C)=O)c(C)c4c(c3C(COC1=O)N1C(O)C3Cc5cc(C)c(OC)c(O)c5C(C21)N3C)OCO4 | 6580 | 4800 | 1520 | 379 | < 31.6 | 103 | 106 | 103 | 93.2 | 77 | 34.7 | 108 | 106 | 101 | 96.7 | 62.6 | 27.5 | 103 | 108 | 97.7 | viability, T/C [16]: 68.3%; viability, T/C [17]: 18.7%; viability, T/C [18]: 5.37%; viability, T/C [19]: 79.3%; viability, T/C [20]: 81%; viability, T/C [21]: 55%; viability, T/C [22]: 17.5%; viability, T/C [23]: 1.86%; viability, T/C [24]: 0.35%; viability, T/C [25]: 22.5%; viability, T/C [26]: 19.1%; viability, T/C [27]: 9.89%; viability, T/C [28]: 1.71%; viability, T/C [29]: 1.27%; viability, T/C [30]: 1.18% |
